# “Also recorded” adds a separate entry of the source. Marks after values point to notes of the source that are not given here.
# How the values were obtained:
# [1] = in vivo; cited from earlier work
# [2] = Serum drug concentrations after oral PYD bromide in OSA patients (Example 1, LC-MS); format: in vivo, human
# Experimental: (§1) A randomized, double-blind, placebo-controlled, crossover study with PYD was undertaken in 12 patients with moderate to severe OSA. PYD was prepared by grinding pyridostigmine bromide pills manufactured by Sunve Pharmaceutical Co., LTD., Shanghai, China and recapsulated into hard shell capsules. PYD bromide at 30 mg, 60 mg, 120 mg, or placebo was orally administered to patients before sleep each night for a total of four continuous nights. Lights went out within 5 min after the administration. Blood was drawn at 0, 0.5, 1, 1.5, 2, 2.5, 3, 4 and 7 hours after the administration, and serum drug concentrations were determined by a LC-MS method after proper pre-treatment of the blood samples. Patients were monitored by either a PSG or a PM throughout the nights.
# OSA patient = assay: Randomized, double-blind, dose escalating study in one OSA patient (Example 3; PSG); format: in vivo, human; conditions: FIG. 9
# Experimental: A randomized, double-blind, dose escalating study was carried out in one patient to determine optimum PYD dose range for treating OSA. The patient was administered to with 30, 60, 90 mg PYD bromide or a placebo before sleep, and was monitored by PSG throughout the night. AHI, AI, and total apnea/hypopnea time were lower in the nights administered with 30 or 60 mg PYD bromide compared with the night with 90 mg PYD bromide (FIG. 9). The number of low O2 saturation events was lower with 60 mg PYD bromide compared with that of 90 mg PYD bromide. The results obtained from the clinical study described in Example 2 were reexamined to compare the therapeutic responses in the windows of 2-5 hours and 5-7 hours after sleep. […] Since serum PYD concentrations are expected to be lower within 5-7 hours comparing with those within 2-5 hours, the optimum dose range may be less than 90 mg of PYD bromide in a single dose.
# diagnosed OSA patients = assay: Double-blind, randomized, cross-over, placebo-controlled study of efficacy and safety of PYD in 6 OSA patients (Example 2; PSG, questionnaires); format: in vivo, human; conditions: for Apnea/Hypopnea Index (AHI): 90 mg PYD bromide oral, mean of 6 patients; for Apnea/Hypopnea Index (AHI) / Apnea index (AI) / Hypopnea Index (HI): events per hour; for Apnea/Hypopnea Index (AHI) Reduction (%) / Hypopnea Index (HI) Reduction (%) / Apnea index (AI) Reduction (%) / Apnea/Hypopnea time Reduction (%) / Low Sat O2 Reduction (%) / Snore score Reduction (%): 90 mg vs placebo; for Apnea/Hypopnea time (%): percentage of total sleep time
# Experimental: A double-blind, randomized, cross-over, placebo-controlled study was conducted to evaluate the efficacy and safety of PYD in 6 diagnosed OSA patients. The study consists of a one-day acclimatization period followed immediately by a 2-day double-blind treatment period when patients received either 90 mg PYD bromide in hard shell capsules or a matching placebo before sleep with a light snack. All patients were required to maintain in a supine position throughout of the night, as OSA is most severe when patients is on their back. In such a way, the results are expected to be more conservative in judging therapeutic effects of the drug. Lights were turned off within 5 min after the administration of the drug. The patients were monitored by a PSG. Apnea, hypopnea, snoring, blood O2 saturation were monitored, recorded, and scored. Sleep questionnaires were taken everyday after sleep to evaluate the impact on the sleep satisfaction and at evening to evaluate the quality of life during the daytime. Safety of the drug was also monitored and evaluated.
# [3] = system: patients with moderate to severe OSA; assay: Randomized, double-blind, placebo-controlled, crossover study with PYD in 12 patients with moderate to severe OSA (Example 1; PSG or PM); format: in vivo, human
# Experimental: as §1
# [4] = 0-2 hr, P value >0.05, listed as Drug
# [5] = 0-2 hr, P value >0.05, listed as PYD bromide
# [6] = 2-7 hr, P value >0.05, listed as Drug
# [7] = 2-7 hr, P value >0.05, listed as PYD bromide
# [8] = one patient, three treatment nights (30, 60, 120 mg), 2-7 hours after lights off
smiles,measurement,setting,value
"CN(C)C(=O)Oc1ccc[n+](C)c1 [PYD, pyridostigmine]",elimination half-life,[1],approximately 1.78 hours
same,serum drug concentrations in one patient,"[2]; one patient monitored by PSG all four nights, 30, 60, 120 mg oral, FIG. 2",3 to 45 ng/mL
same,time of peak serum drug concentration,"[2]; oral PYD bromide 30, 60 or 120 mg before sleep, 12 OSA patients, FIG. 1",3 to 4 h
same,number of low O2 saturation events,OSA patient; 60 mg compared with 90 mg PYD bromide,lower
same,"AHI, AI, and total apnea/hypopnea time",OSA patient; nights with 30 or 60 mg compared with the night with 90 mg PYD bromide,lower
same,Apnea/Hypopnea Index (AHI),diagnosed OSA patients; 0-2 hr after sleep,29.6
same,Apnea/Hypopnea Index (AHI),diagnosed OSA patients; 2-7 hr after sleep,20.4
same,Apnea/Hypopnea Index (AHI) Reduction (%),"diagnosed OSA patients; 0-2 hr after sleep, P value >0.05, listed as Drug",13.1*** %
same,Apnea/Hypopnea Index (AHI) Reduction (%),"diagnosed OSA patients; 0-2 hr after sleep, P value >0.05, listed as PYD bromide",No statistically significant reduction
same,Hypopnea Index (HI) Reduction (%),"diagnosed OSA patients; 0-2 hr, P value >0.05",−17.7*** %
same,Apnea index (AI) Reduction (%),diagnosed OSA patients; [4],26.7*** %
same,Apnea/Hypopnea time Reduction (%),diagnosed OSA patients; [4],21.5*** %
same,Low Sat O2 Reduction (%),diagnosed OSA patients; [4],6.6*** %
same,Snore score Reduction (%),diagnosed OSA patients; [4],3.3*** %
same,Apnea index (AI) Reduction (%),diagnosed OSA patients; [5],No statistically significant reduction
same,Apnea/Hypopnea time Reduction (%),diagnosed OSA patients; [5],No statistically significant reduction
same,Low Sat O2 Reduction (%),diagnosed OSA patients; [5],No statistically significant reduction
same,Snore score Reduction (%),diagnosed OSA patients; [5],No statistically significant reduction
same,Apnea/Hypopnea Index (AHI) Reduction (%),"diagnosed OSA patients; 2-7 hr after sleep, P value <0.01 (0.0003), listed as Drug",28.0* %
same,Apnea/Hypopnea Index (AHI) Reduction (%),"diagnosed OSA patients; 2-7 hr after sleep, P value <0.01 (0.0003), listed as PYD bromide",28.0%
same,Apnea/Hypopnea time Reduction (%),"diagnosed OSA patients; 2-7 hr, 0.01 < P value < 0.05 (0.0133), listed as Drug",36.4** %
same,Apnea/Hypopnea time Reduction (%),"diagnosed OSA patients; 2-7 hr, 0.01 < P value < 0.05 (0.0133), listed as PYD bromide",36.4%
same,Apnea index (AI) Reduction (%),"diagnosed OSA patients; 2-7 hr, 0.01 < P value < 0.05 (0.0314), listed as Drug",37.3** %
same,Apnea index (AI) Reduction (%),"diagnosed OSA patients; 2-7 hr, 0.01 < P value < 0.05 (0.0314), listed as PYD bromide",37.3%
same,Snore score Reduction (%),"diagnosed OSA patients; 2-7 hr, P value <0.01 (0.0041), listed as Drug",18.8* %
same,Snore score Reduction (%),"diagnosed OSA patients; 2-7 hr, P value <0.01 (0.0041), listed as PYD bromide",18.8%
same,Hypopnea Index (HI) Reduction (%),diagnosed OSA patients; [6],10.3*** %
same,Low Sat O2 Reduction (%),diagnosed OSA patients; [6],12.5*** %
same,Hypopnea Index (HI) Reduction (%),diagnosed OSA patients; [7],10.3%
same,Low Sat O2 Reduction (%),diagnosed OSA patients; [7],12.5%
same,Low Sat O2 (events/hr),"diagnosed OSA patients; 90 mg, 0-2 hr after sleep",35.1 events/hr
same,Snore score (events/hr),"diagnosed OSA patients; 90 mg, 0-2 hr after sleep",528 events/hr
same,Apnea index (AI),"diagnosed OSA patients; 90 mg, 0-2 hr after sleep",16.9
same,Hypopnea Index (HI),"diagnosed OSA patients; 90 mg, 0-2 hr after sleep",12.0
same,Apnea/Hypopnea time (%),"diagnosed OSA patients; 90 mg, 0-2 hr",18.7%
same,Low Sat O2 (events/hr),"diagnosed OSA patients; 90 mg, 2-7 hr after sleep",24.9 events/hr
same,Snore score (events/hr),"diagnosed OSA patients; 90 mg, 2-7 hr after sleep",485 events/hr
same,Apnea index (AI),"diagnosed OSA patients; 90 mg, 2-7 hr after sleep",11.7
same,Hypopnea Index (HI),"diagnosed OSA patients; 90 mg, 2-7 hr after sleep",8.7
same,Apnea/Hypopnea time (%),"diagnosed OSA patients; 90 mg, 2-7 hr",14.5%
same,"PSG scores (AHI, AI, total apnea/hypopnea time, low O2 saturation events)","diagnosed OSA patients; 90 mg, 5-7 hours compared with 2-5 hours after sleep, FIG. 10",statistically significantly lower
same,daytime quality of life reported by patients,diagnosed OSA patients; daytime following the drug treatment night,"more energy, be more concentrated and be less sleepy"
same,tolerability / serious adverse reactions,diagnosed OSA patients; single dose 90 mg PYD bromide,well tolerated; also recorded: no serious adverse reaction was reported
same,adverse reactions found,"diagnosed OSA patients; single dose 90 mg, one patient",minor stomach upset
same,longer total sleep time in the treatment night (average),"diagnosed OSA patients; three patients, treatment night vs placebo night, FIG. 8",33 min
same,noise of snoring,diagnosed OSA patients; treatment night compared with placebo night,quieter
same,"sleep quality, patients' self evaluation questionnaire","diagnosed OSA patients; treatment night vs placebo night, FIG. 8","better sleep, more clear-headed, more energetic, and more satisfied sleep"
same,serious adverse reactions,"[3]; 30, 60, 120 mg oral, during the study",No serious adverse reaction was reported
same,serum drug concentrations at which patients particularly responded positively,[3]; 'particularly between',3 to 60 ng/mL
same,AHI and events of low O2 saturation,"[3]; one patient, 0-2 hours after lights off",largely not changed
same,"AHI and low O2 saturation, dose response","[3]; one patient, 30-60 mg compared with 120 mg PYD bromide, FIG. 2",lower AHI and less low O2 saturation
same,reduction of AHI compared with placebo,[3]; [8],11-23%
same,reduction of events of low blood O2 saturation compared with placebo,[3]; [8],10-18%
same,adverse reactions at the highest dose,[3]; patients treated with the highest dose,stomach upset and mild muscle cramp
same,serum drug concentrations at which patients responded positively,"[3]; positive responses: reduction of AHI, AI, apnea/hypopnea time, snoring, increase in minimum oxygen saturation",2 to 150 ng/mL

# From patent US9295670B2, “Methods for treating obstructive sleep apnea” (priority 2011, dated 2016)
